Biological target: human F508del-CFTR (Homo sapiens, UniProt P13569, DEL508-508)
Assay: F508del-CFTR cell surface expression (corrector activity), DiscoveRx ß-galactosidase complementation chemiluminescence assay in recombinant U2OS cell line;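 also: U2OS cells co-expressing ProLink-tagged F508del-CFTR and a membrane-anchored enzyme acceptor, where more surface CFTR restores β-galactosidase activity measured by chemiluminescence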
Conditions: for EC50: EC50, F508del-CFTR cell surface expression; for Emax: U2OS
[1] = U2OS cells, 16h compound incubation, geomean of several measurements
[2] = in relation to the Emax of the corrector lumacaftor (=100%), U2OS cells, 16h compound incubation, arithmetic mean
[3] = U2OS cells, 16h compound incubation, geomean values
[4] = in relation to Emax of corrector lumacaftor (=100%), arithmetic mean values
[5] = U2OS cell line, 16h compound incubation, geomean values
[6] = in relation to the Emax of the corrector lumacaftor (=100%), U2OS cell line, 16h compound incubation, arithmetic mean values

human F508del-CFTR, sequence (P13569 with tags, fused parts or gaps DEL508-508): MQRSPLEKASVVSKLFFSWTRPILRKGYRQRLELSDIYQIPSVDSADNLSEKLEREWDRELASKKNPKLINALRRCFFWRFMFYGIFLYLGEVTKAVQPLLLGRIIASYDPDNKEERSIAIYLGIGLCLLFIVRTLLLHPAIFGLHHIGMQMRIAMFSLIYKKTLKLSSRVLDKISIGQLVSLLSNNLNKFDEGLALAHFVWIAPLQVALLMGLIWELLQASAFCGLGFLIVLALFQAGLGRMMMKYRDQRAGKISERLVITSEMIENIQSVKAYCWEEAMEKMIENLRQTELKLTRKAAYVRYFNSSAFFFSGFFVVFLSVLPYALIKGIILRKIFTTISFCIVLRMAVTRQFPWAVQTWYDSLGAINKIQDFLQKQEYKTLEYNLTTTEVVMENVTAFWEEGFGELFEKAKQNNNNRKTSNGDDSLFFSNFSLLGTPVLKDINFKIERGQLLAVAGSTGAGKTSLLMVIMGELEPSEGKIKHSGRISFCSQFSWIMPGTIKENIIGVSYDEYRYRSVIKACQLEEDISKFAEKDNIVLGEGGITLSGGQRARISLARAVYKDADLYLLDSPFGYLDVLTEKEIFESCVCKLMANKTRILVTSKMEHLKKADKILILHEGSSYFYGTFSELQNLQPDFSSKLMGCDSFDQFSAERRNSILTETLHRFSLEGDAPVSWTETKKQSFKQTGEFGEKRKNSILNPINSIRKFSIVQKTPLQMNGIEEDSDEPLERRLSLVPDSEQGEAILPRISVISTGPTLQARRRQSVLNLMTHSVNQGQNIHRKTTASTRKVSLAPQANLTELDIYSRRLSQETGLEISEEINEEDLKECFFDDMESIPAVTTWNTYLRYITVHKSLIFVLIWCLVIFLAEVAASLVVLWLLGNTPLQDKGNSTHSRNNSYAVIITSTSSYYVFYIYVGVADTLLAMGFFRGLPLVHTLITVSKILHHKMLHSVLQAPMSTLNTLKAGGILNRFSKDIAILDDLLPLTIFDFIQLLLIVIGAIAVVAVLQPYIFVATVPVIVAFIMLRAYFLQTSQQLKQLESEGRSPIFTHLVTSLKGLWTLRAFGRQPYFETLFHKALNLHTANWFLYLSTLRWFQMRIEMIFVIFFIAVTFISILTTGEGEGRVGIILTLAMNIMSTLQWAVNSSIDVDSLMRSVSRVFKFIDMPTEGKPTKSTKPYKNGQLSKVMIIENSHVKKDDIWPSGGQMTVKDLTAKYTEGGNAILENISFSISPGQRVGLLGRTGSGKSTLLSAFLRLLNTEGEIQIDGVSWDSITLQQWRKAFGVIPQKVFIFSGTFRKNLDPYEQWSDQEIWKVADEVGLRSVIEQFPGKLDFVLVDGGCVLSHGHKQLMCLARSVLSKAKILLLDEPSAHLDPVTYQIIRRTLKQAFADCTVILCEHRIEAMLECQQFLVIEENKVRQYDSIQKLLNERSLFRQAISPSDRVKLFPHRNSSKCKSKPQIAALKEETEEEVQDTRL

With `COc1nc(C)nc2c1C(=O)N[C@H](C(=O)NCCc1cc(C3CC3)no1)CC(=O)N(C)[C@@H](CC(C)C)C(=O)N(C)[C@H](C)C(=O)N[C@H](Cc1ccccc1)CO2` [Example 862, (7S,11S,14R,17R)-17-benzyl-N-(2-(3-cyclopropylisoxazol-5-yl)ethyl)-11-isobutyl-4-methoxy-2,10,13,14-tetramethyl-5,9,12,15-tetraoxo-5,6,7,8,9,10,11,12,13,14,15,16,17,18-tetradecahydropyrimido[5,4-p][1]oxa[4,7,10,14]tetraazacycloheptadecine-7-carboxamide] the EC50 [1] was 921 nM and the Emax [2] was 335%.

`COc1cc(CCNC(=O)[C@@H]2CC(=O)N(C)[C@@H](CC(C)C)C(=O)N(C)[C@H](CC(F)F)C(=O)N[C@H](Cc3ccccc3)COc3ccc4ncc(F)cc4c3C(=O)N2)on1` [Example 819, (3S,7S,10R,13R)-13-benzyl-10-(2,2-difluoroethyl)-20-fluoro-7-isobutyl-N-(2-(3-methoxyisoxazol-5-yl)ethyl)-6,9-dimethyl-1,5,8,11-tetraoxo-1,2,3,4,5,6,7,8,9,10,11,12,13,14-tetradecahydro-[1]oxa[4,7,10,14]tetraazacycloheptadecino[16,17-f]quinoline-3-carboxamide] showed an EC50 [1] of 276 nM and an Emax [2] of 431%.

Compound `CC(C)C[C@H]1C(=O)N2CCCC[C@@H]2C(=O)N[C@H](Cc2ccccc2)COc2nc3ccccn3c2C(=O)N[C@H](C(=O)NCCc2c(F)cccc2F)CC(=O)N1C` [Example 484, (7S,11S,22R,24aR)-22-benzyl-N-(2,6-difluorophenethyl)-7-isobutyl-8-methyl-6,9,13,24-tetraoxo-1,3,4,6,7,8,9,10,11,12,13,21,22,23,24,24a-hexadecahydro-2H-pyrido[2,1-f]pyrido[2′,1′:2,3]imidazo[4,5-p][1]oxa[4,7,10,14]tetraazacycloheptadecine-11-carboxamide] has an EC50 [3] of 251 nM and an Emax [4] of 117%.

`CN1C(=O)C[C@@H](C(=O)NCCc2ccc3c(c2)OCO3)NC(=O)c2c(ccc3ccccc23)OC[C@@H](Cc2ccccc2)NC(=O)CN(CC[C@H]2CCCCO2)C(=O)[C@@H]1CC1CC1` [Example 359, (3S,7S,13R)-N-(2-(benzo[d][1,3]dioxol-5-yl)ethyl)-13-benzyl-7-(cyclopropylmethyl)-6-methyl-1,5,8,11-tetraoxo-9-(2-((R)-tetrahydro-2H-pyran-2-yl)ethyl)-1,2,3,4,5,6,7,8,9,10,11,12,13,14-tetradecahydronaphtho[1,2-p][1]oxa[4,7,10,14]tetraazacycloheptadecine-3-carboxamide] showed an EC50 [5] of 318 nM and an Emax [6] of 144%.

For `Cc1nc2ccc3c(c2o1)C(=O)N[C@H](C(=O)NCCc1ccc(-n2nccn2)cc1)CC(=O)N(C)[C@@H](CC(C)C)C(=O)N1CCN(CC2CC2)C[C@@H]1C(=O)N[C@H](Cc1ccccc1)CO3` [Example 428, (8S,12S,18aR,21R)-N-(4-(2H-1,2,3-triazol-2-yl)phenethyl)-21-benzyl-17-(cyclopropylmethyl)-12-isobutyl-4,11-dimethyl-6,10,13,19-tetraoxo-6,7,8,9,10,11,12,13,16,17,18,18a,19,20,21,22-hexadecahydro-15H-oxazolo[4′,5′:5,6]benzo[1,2-p]pyrazino[2,1-f][1]oxa[4,7,10,14]tetraazacycloheptadecine-8-carboxamide], the EC50 [3] was 614 nM and the Emax [4] was 218%.

In the case of `CC(C)C[C@H]1C(=O)N(C)CC(=O)N[C@H](Cc2ccccc2)COc2ccc3c(c2C(=O)N[C@H](C(=O)NCCc2ccc4c(c2)OCO4)CC(=O)N1C)OC(F)(F)O3` [Example 408, (8R,14S,18S)-N-(2-(benzo[d][1,3]dioxol-5-yl)ethyl)-8-benzyl-2,2-difluoro-14-isobutyl-12,15-dimethyl-10,13,16,20-tetraoxo-7,8,9,10,11,12,13,14,15,16,17,18,19,20-tetradecahydro-[1,3]dioxolo[4′,5′:5,6]benzo[1,2-p][1]oxa[4,7,10,14]tetraazacycloheptadecine-18-carboxamide], the EC50 [3] is reported as 241 nM and the Emax [4] is reported as 134%.

`CC(C)C[C@H]1C(=O)N2CCCC[C@@H]2C(=O)N[C@H](Cc2ccccc2)COc2cnc3ccc(F)cc3c2C(=O)N[C@H](C(=O)NCCc2noc(C3CC3)n2)CC(=O)N1C` [Example 637, (9S,13S,19aR,22R)-22-benzyl-N-(2-(5-cyclopropyl-1,2,4-oxadiazol-3-yl)ethyl)-5-fluoro-13-isobutyl-12-methyl-7,11,14,20-tetraoxo-7,8,9,10,11,12,13,14,17,18,19,19a,20,21,22,23-hexadecahydro-16H-pyrido[2′,11:6,7][1]oxa[4,7,10,14]tetraazacycloheptadecino[17,16-c]quinoline-9-carboxamide] gave an EC50 [3] of 106 nM and an Emax [4] of 300%.

`COc1cc2c(cn1)OC[C@@H](Cc1ccccc1)NC(=O)[C@@H]1CCCCN1C(=O)[C@H](CC(C)C)N(C)C(=O)C[C@@H](C(=O)NCCc1cc(C3CC3)no1)NC2=O` (mixture of isomers) [Example 652, (7S,11S,17aRS,20R)-20-benzyl-N-(2-(3-cyclopropylisoxazol-5-yl)ethyl)-11-isobutyl-3-methoxy-10-methyl-5,9,12,18-tetraoxo-5,6,7,8,9,10,11,12,15,16,17,17a,18,19,20,21-hexadecahydro-14H-dipyrido[2,1-f:4′,3′-p][1]oxa[4,7,10,14]tetraazacycloheptadecine-7-carboxamide] was tested, and the EC50 [3] was 593 nM and the Emax [4] was 155%.

`COc1ccc(CCNC(=O)[C@@H]2CC(=O)N(C)[C@@H](CC(C)C)C(=O)N(C)CC(=O)N[C@H](Cc3ccccc3)COc3cc4c(cc3C(=O)N2)OCO4)cc1` [Example 153, (7R,13S,17S)-7-benzyl-13-isobutyl-N-(4-methoxyphenethyl)-11,14-dimethyl-9,12,15,19-tetraoxo-6,7,8,9,10,11,12,13,14,15,16,17,18,19-tetradecahydro-[1,3]dioxolo[4′,5′:4,5]benzo[1,2-p][1]oxa[4,7,10,14]tetraazacycloheptadecine-17-carboxamide] was tested, and the EC50 [5] was 460 nM and the Emax [6] was 115%.

`CC(C)C[C@H]1C(=O)N2CCCC[C@@H]2C(=O)N[C@H](Cc2ccccc2)COc2cnc3ccc(F)cc3c2C(=O)N[C@H](C(=O)NCCc2cc(C3CC3)no2)CC(=O)N1C` [Example 640, (9S,13S,19aR,22R)-22-benzyl-N-(2-(3-cyclopropylisoxazol-5-yl)ethyl)-5-fluoro-13-isobutyl-12-methyl-7,11,14,20-tetraoxo-7,8,9,10,11,12,13,14,17,18,19,19a,20,21,22,23-hexadecahydro-16H-pyrido[2′,11:6,7][1]oxa[4,7,10,14]tetraazacycloheptadecino[17,16-c]quinoline-9-carboxamide] gave an EC50 [3] of 132 nM and an Emax [4] of 339%.

`Cc1cc(CCNC(=O)[C@@H]2CC(=O)N(C)[C@@H](CC(C)C)C(=O)N3CCN(c4ccccc4)C[C@@H]3C(=O)N[C@H](Cc3ccccc3)COc3cnc4ccccc4c3C(=O)N2)on1` [Example 510, (9S,13S,19aR,22R)-22-benzyl-13-isobutyl-12-methyl-N-(2-(3-methylisoxazol-5-yl)ethyl)-7,11,14,20-tetraoxo-18-phenyl-7,8,9,10,11,12,13,14,17,18,19,19a,20,21,22,23-hexadecahydro-16H-pyrazino[2′,11:6,7][1]oxa[4,7,10,14]tetraazacycloheptadecino[17,16-c]quinoline-9-carboxamide] was tested, and the EC50 [3] was 108 nM and the Emax [4] was 256%.

Work on `COc1nc(C)cc2c1C(=O)N[C@H](C(=O)NCCn1nc3ccccc3n1)CC(=O)N(C)[C@@H](CC(C)C)C(=O)N(C)[C@H](Cc1nc(C(F)(F)F)no1)C(=O)N[C@H](Cc1ccccc1)CO2` [Example 903, (3R,6R,9S,13S)-N-(2-(2H-benzo[d][1,2,3]triazol-2-yl)ethyl)-3-benzyl-9-isobutyl-16-methoxy-7,10,18-trimethyl-5,8,11,15-tetraoxo-6-((3-(trifluoromethyl)-1,2,4-oxadiazol-5-yl)methyl)-2,3,4,5,6,7,8,9,10,11,12,13,14,15-tetradecahydropyrido[3,4-p][1]oxa[4,7,10,14]tetraazacycloheptadecine-13-carboxamide] yielded an EC50 [1] of 51 nM and an Emax [2] of 414%.

`COc1cc(CCNC(=O)[C@@H]2CC(=O)N(C)[C@@H](CC(C)C)C(=O)N(C)[C@H](CC(F)(F)F)C(=O)N[C@H](Cc3ccccc3)COc3ccnc(OC)c3C(=O)N2)on1` [Example 776, (3R,6R,9S,13S)-3-benzyl-9-isobutyl-16-methoxy-N-(2-(3-methoxyisoxazol-5-yl)ethyl)-7,10-dimethyl-5,8,11,15-tetraoxo-6-(2,2,2-trifluoroethyl)-2,3,4,5,6,7,8,9,10,11,12,13,14,15-tetradecahydropyrido[3,4-p][1]oxa[4,7,10,14]tetraazacycloheptadecine-13-carboxamide] showed an EC50 [3] of 325 nM and an Emax [4] of 360%.

`COc1ccc(CCNC(=O)[C@@H]2CC(=O)N(C)[C@@H](CC(C)C)C(=O)N3CCOC[C@@H]3C(=O)N[C@H](Cc3ccccc3)COc3cnc4ccccc4c3C(=O)N2)c(F)c1` [Example 59, (9S,13S,19aR,22R)-22-benzyl-N-(2-fluoro-4-methoxyphenethyl)-13-isobutyl-12-methyl-7,11,14,20-tetraoxo-7,8,9,10,11,12,13,14,16,17,19,19a,20,21,22,23-hexadecahydro-[1,4]oxazino[3′,4′:6,7][1]oxa[4,7,10,14]tetraazacycloheptadecino[17,16-c]quinoline-9-carboxamide] gave an EC50 [5] of 772 nM and an Emax [6] of 237%.

From patent US20240208992A1, “MACROCYCLES AS CFTR MODULATORS” (Idorsia Pharmaceuticals Ltd, priority 2021, published 2024)
